This is an account of results in US20090111801A1, “SUBSTITUTED PYRAZINONE DERIVATIVES FOR USE AS A MEDICINE” (Janssen Pharmaceutica N.V., priority 2006, published 2009).

The target in assay [1] is T1, 5HT-Transporter (Homo sapiens, UniProt P31645).
T1 construct: Human platelet membranes (Oceanix Biosciences Corporation, Hanover, Md., USA) were thawed; tissue Oceanix Biosciences Corporation, Hanover, Md., USA; host or cells: human platelet membranes
Nature of the assay: Binding experiment for the 5HT-transporter ([3H]paroxetine, human platelet membranes). As to conditions: [3H]paroxetine 0.5 nM; for IC50: read-out: h-5HTT pIC50 (converted). In outline:
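Competition binding of [3H]paroxetine to human platelet membranes in Tris-HCl 50 mM, 120 mM NaCl, 5 mM KCl, with filtration and scintillation counting.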

Assay [2] addresses T2, hα2C receptor (Homo sapiens, UniProt P18825).
T2 construct: expressed in transfected cells; host or cells: CHO cells, stably transfected; membrane preparation
T2 sequence (P18825 1-462): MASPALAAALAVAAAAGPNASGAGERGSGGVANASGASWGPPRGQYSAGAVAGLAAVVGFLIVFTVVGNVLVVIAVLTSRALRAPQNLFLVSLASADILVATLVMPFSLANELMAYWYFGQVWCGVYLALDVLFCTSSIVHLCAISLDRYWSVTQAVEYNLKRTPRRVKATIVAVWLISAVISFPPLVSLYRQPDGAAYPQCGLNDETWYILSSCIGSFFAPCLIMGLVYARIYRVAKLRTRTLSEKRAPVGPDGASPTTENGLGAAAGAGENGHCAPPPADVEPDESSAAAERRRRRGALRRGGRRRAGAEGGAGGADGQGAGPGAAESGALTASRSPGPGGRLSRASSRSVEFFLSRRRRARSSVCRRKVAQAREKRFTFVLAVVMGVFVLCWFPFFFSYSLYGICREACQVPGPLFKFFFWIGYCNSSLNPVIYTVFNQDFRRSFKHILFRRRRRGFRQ
In words: Radioligand binding experiment for α2C-adrenoceptor ([3H]raulwolscine, CHO cell membranes). As to conditions: [3H]raulwolscine binding; for IC50: read-out: h-α2C pIC50 (converted).

In assay [3] the target is T3, hα2A receptor (Homo sapiens, UniProt P08913).
T3 construct: expressed in transfected cells; host or cells: CHO cells, stably transfected; membrane preparation
T3 sequence (P08913 1-465): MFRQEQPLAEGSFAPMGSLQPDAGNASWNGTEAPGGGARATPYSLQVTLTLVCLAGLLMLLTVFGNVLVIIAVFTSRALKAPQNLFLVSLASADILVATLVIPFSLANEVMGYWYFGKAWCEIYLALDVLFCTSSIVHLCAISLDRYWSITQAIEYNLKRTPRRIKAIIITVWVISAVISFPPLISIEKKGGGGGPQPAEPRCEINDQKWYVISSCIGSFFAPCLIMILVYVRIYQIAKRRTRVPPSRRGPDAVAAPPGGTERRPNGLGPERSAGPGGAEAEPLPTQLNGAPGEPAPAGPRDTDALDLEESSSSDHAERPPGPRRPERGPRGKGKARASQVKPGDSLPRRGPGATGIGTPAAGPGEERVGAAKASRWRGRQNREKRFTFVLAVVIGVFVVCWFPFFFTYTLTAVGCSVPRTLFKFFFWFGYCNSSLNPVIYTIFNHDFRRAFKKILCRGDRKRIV
In words: Radioligand binding experiment for α2A-adrenoceptor ([3H]raulwolscine, CHO cell membranes). As to conditions: [3H]raulwolscine binding; for IC50: read-out: h-α2A pIC50 (converted).

T1 sequence (P31645 whole entry): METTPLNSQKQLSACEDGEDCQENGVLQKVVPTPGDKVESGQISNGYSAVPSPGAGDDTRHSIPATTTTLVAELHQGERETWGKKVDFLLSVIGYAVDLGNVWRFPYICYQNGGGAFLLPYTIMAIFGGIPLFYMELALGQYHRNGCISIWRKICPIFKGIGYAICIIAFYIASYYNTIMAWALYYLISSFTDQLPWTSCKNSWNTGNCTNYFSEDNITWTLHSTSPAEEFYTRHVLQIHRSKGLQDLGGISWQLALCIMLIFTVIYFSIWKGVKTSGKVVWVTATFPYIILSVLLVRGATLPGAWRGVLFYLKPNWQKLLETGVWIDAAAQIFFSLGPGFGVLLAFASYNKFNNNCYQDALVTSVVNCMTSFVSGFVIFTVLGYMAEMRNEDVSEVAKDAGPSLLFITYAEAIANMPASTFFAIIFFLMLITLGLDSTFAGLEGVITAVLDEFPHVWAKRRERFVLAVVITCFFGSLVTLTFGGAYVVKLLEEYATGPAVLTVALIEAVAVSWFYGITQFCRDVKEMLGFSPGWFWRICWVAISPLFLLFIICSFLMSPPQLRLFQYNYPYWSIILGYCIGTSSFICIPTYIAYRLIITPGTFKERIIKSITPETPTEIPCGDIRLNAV

Turning to `CC(C)(C)C(=O)Cn1ccnc(NC2CCN(C/C=C/c3ccccc3)CC2)c1=O` [16-25], the IC50 was greater than 10000 nM in assay [1], 158 nM in assay [2] and 1000 nM in assay [3].
In the same order, the values of `C/C(=C\c1ccccc1)CN1CCC(Nc2nccn(CC(=O)NCc3ccc(F)cc3)c2=O)CC1` [1-55] are 316 nM, 1.26 nM and 63.1 nM.
In the same order, the values of `C/C(=C\c1ccccc1)CN1CCC(N(C)c2nccn(CCCO)c2=O)CC1` [15-4] are 2510 nM, 39.8 nM and 63.1 nM.
For the compound `O=c1c(NC2CCN(C/C=C/c3ccccc3)CC2)nccn1CC1CCCCC1` [16-23], the IC50 in assay [1] is 1260 nM; in assay [2], 316 nM; in assay [3] it was 631 nM.
In the same order, the values of `C/C(=C\c1ccccc1)CN1CCC(Nc2nccn(C/C=C/c3ccccc3)c2=O)CC1` [5-28] are 501 nM, 63.1 nM and 158 nM.
On the same counts, the results for `CSCCn1ccnc(NC2CCN(C/C(C)=C/c3ccccc3)CC2)c1=O` [4-1] are 3160 nM, 20 nM and 39.8 nM.
In the same order, the values of `C/C(=C\c1ccccc1)CN1CCN(c2nccn(CCCc3ccccc3)c2=O)CC1` [12-2] are 1260 nM, 63.1 nM and 200 nM.
Consider `C/C(=C\c1ccccc1)CN1CCC(Nc2nccn(Cc3ccc(CNC(=O)C4CCCCC4)cc3)c2=O)CC1` [1-36], for which the IC50 in assay [1] was 398 nM; in assay [2], 39.8 nM; in assay [3], 158 nM.
In the same order, the values of `C/C(=C\c1ccccc1)CN1CCC(Nc2nccn(Cc3ccc4ccccc4n3)c2=O)CC1` [6-17] are 316 nM, 15.8 nM and 79.4 nM.
In the same order, the values of `C/C(=C\c1ccccc1)CN1CCC(Nc2nccn(CCN3CCCCC3)c2=O)CC1` [2-3] are 3160 nM, 6.31 nM and 63.1 nM.
In the same order, the values of `C/C(=C\c1ccccc1)CN1CCC(Nc2nccn(Cc3ccccc3-c3ccccc3)c2=O)CC1` [5-31] are 200 nM, 20 nM and 100 nM.
Consider `C/C(=C\c1ccccc1)CN1CCC(Nc2nccn(-c3ccc(CNC(=O)c4ccc(F)cc4)cc3)c2=O)CC1` [1-78], for which the “h-5HTT pIC50” value in assay [1] amounted to 7.1. The “h-α2C pIC50” value in assay [2] was found to be 8.3. The “h-α2A pIC50” value in assay [3] is 6.7.
Consider `C/C(=C\c1ccccc1)CN1CCC(Nc2nccn(CCCN(C(=O)Cc3ccccc3)c3ccccc3)c2=O)CC1` [1-88], for which the IC50 was 631 nM in assay [1], 12.6 nM in assay [2] and 126 nM in assay [3].
Regarding `COc1ccc(Cn2ccnc(NC3CCN(C/C(C)=C/c4ccccc4)CC3)c2=O)cc1` [3-11], the IC50 is 501 nM in assay [1], 31.6 nM in assay [2] and 20 nM in assay [3].
In the same order, the values of `C/C(=C\c1ccccc1)CN1CCC(Nc2nccn(CC(=O)N(CCN3CCOCC3)Cc3ccc(F)cc3)c2=O)CC1` [1-151] are 1260 nM, 2 nM and 126 nM.
As to `C/C(=C\c1ccccc1)CN1CCC(Nc2nccn(-c3nccs3)c2=O)CC1` [6-5], the IC50 in assay [1] is 316 nM; in assay [2] it was 7.94 nM; in assay [3] it was 50.1 nM.
In the same order, the values of `CC(=O)NCCNC(=O)Cn1ccnc(NC2CCN(C/C(C)=C/c3ccccc3)CC2)c1=O` [1-114] are 3980 nM, 12.6 nM and 200 nM.
For the compound `C/C(=C\c1ccccc1)CN1CCC(Nc2nccn(CC(=O)NCCc3ccccc3)c2=O)CC1` [1-57], the IC50 in assay [1] was 3160 nM; in assay [2], 3.98 nM; in assay [3], 126 nM.
On to `COc1ccc(-n2ccnc(NC3CCN(C/C(C)=C/c4ccccc4)CC3)c2=O)cc1` [3-9], for which the IC50 in assay [1] is 50.1 nM; in assay [2], 7.94 nM; in assay [3] it was 5.01 nM.
On the same counts, the results for `O=c1c(NC2CCN(C/C=C/c3ccccc3)CC2)nccn1Cc1ccncc1` [16-20] are greater than 10000 nM, 251 nM and 2000 nM.
As for `C/C(=C\c1ccccc1)CN1CCC(N(C)c2nccn(CC3CCCCO3)c2=O)CC1` (stereo not drawn) [15-7], the IC50 was 3160 nM in assay [1], 39.8 nM in assay [2] and 79.4 nM in assay [3].
On the same counts, the results for `C/C(=C\c1ccccc1)CN1CCC(Nc2nccn(Cc3ccc(CNC(=O)NCCS)cc3)c2=O)CC1` [1-116] are 316 nM, 126 nM and 200 nM.
Take `C/C(=C\c1ccccc1)CN1CCC(Nc2nccn(Cc3ccc(C)cc3)c2=O)CC1` [5-9]: the figures for the IC50 in assay [1], in assay [2] and in assay [3] were 1000 nM, 50.1 nM and 158 nM, respectively.
With `C/C(=C\c1ccccc1)CN1CCN(c2nccn(CCOCc3ccccc3)c2=O)CC1` [10-3], the IC50 in assay [1] was 1260 nM; in assay [2], 79.4 nM; in assay [3] it was 398 nM.
In the same order, the values of `C/C(=C\c1ccccc1)CN1CCC(Nc2nccn(CCCNC(=O)c3ccccc3)c2=O)CC1` [1-72] are 1580 nM, 3.16 nM and 126 nM.
In the same order, the values of `C/C(=C\c1ccccc1)CN1CCC(Nc2nccn(CCCN(Cc3ccccc3)C(=O)CC3CCCC3)c2=O)CC1` [1-86] are 1000 nM, 15.8 nM and 158 nM.
In the same order, the values of `C/C(=C\c1ccccc1)CN1CCC(Nc2nccn(-c3cccc(N4CCN(c5ccccc5)CC4)c3)c2=O)CC1` [2-27] are 200 nM, 20 nM and 31.6 nM.
With `C/C(=C\c1ccccc1)CN1CCC(Nc2nccn(-c3ccccc3)c2=O)CC1` [5-1], the IC50 in assay [1] is 1260 nM; in assay [2] it was 5.01 nM; in assay [3], 31.6 nM.
For the compound `C/C(=C\c1ccccc1)CN1CCC(Nc2nccn(Cc3cccc(CN4CCOCC4)c3)c2=O)CC1` [2-45], the results for the IC50 in assay [1], in assay [2] and in assay [3] were 794 nM, 10 nM and 50.1 nM, respectively.
On the same counts, the results for `CC(=O)Nc1ccc(S(=O)(=O)NCc2ccc(Cn3ccnc(NC4CCN(C/C(C)=C/c5ccccc5)CC4)c3=O)cc2)cc1` [1-164] are 501 nM, 20 nM and 158 nM.
In the same order, the values of `C/C(=C\c1ccccc1)CN1CCC(Nc2nccn(CCCNc3ccccc3)c2=O)CC1` [1-39] are 200 nM, 7.94 nM and 79.4 nM.
In the same order, the values of `C/C(=C\c1ccccc1)CN1CCC(Nc2nccn(CC(=O)N(CCN3CCCC3)Cc3ccccc3)c2=O)CC1` [1-135] are 794 nM, 0.794 nM and 12.6 nM.
Take `CCn1ccnc(NC2CCN(C/C(C)=C/c3ccccc3)CC2)c1=O` [7-3]: the IC50 in assay [1] is 3980 nM; in assay [2] it was 15.8 nM; in assay [3], 63.1 nM.
In the same order, the values of `C/C(=C\c1ccccc1)CN1CCC(Nc2nccn(CC(=O)N3CCN(C(=O)C4CCCO4)CC3)c2=O)CC1` (stereo not drawn) [2-38] are 7940 nM, 39.8 nM and 158 nM.
In the same order, the values of `C/C(=C\c1ccccc1)CN1CCN(c2nccn(CCCNC(=O)OC(C)(C)C)c2=O)CC1` [8-3] are 2510 nM, 79.4 nM and 398 nM.
Turning to `C/C(=C\c1ccccc1)CN1CCC(Nc2nccn(Cc3ccc(F)cc3)c2=O)CC1` [5-13], the IC50 was 1260 nM in assay [1], 63.1 nM in assay [2] and 158 nM in assay [3].
In the same order, the values of `C/C(=C\c1ccccc1)CN1CCC(Nc2nccn(CC(=O)NC(C)(C)Cc3ccccc3)c2=O)CC1` [1-62] are 1000 nM, 3.16 nM and 126 nM.
On the same counts, the results for `CCN(CC)c1cccc(-n2ccnc(NC3CCN(C/C(C)=C/c4ccccc4)CC3)c2=O)c1` [1-17] are 1000 nM, 1.58 nM and 5.01 nM.
`CC(=O)N1CCN(Cc2ccc(-n3ccnc(NC4CCN(C/C(C)=C/c5ccccc5)CC4)c3=O)cc2)CC1` [2-23]: in assay [1], the “h-5HTT pIC50” value is 5.1. Besides, the “h-α2C pIC50” value in assay [2] worked out at 7.4. For the same compound, the “h-α2A pIC50” value in assay [3] worked out at 6.1.
